According to ChEMBL document CHEMBL1135217, “N-aryl 2,6-dimethoxybiphenylalanine analogues as VLA-4 antagonists” (Bioorg Med Chem Lett, 2002):

How the values were obtained:
Integrin alpha-4/beta-1 [1] = target: T1, Integrin alpha-4/beta-1 (Homo sapiens, UniProt P05556+P13612); assay: In vitro inhibition of [125I]VCAM-Ig binding to very late antigen -4 on jurkat cells.; type: cell-based
Integrin alpha-4/beta-1 [2] = target: T1, Integrin alpha-4/beta-1; assay: Inhibition of [125I]-VCAM-Ig binding to very late antigen -4 (VLA-4) on Jurkat cells at 4 uM; type: cell-based
[3] = Bioavailability in rat (Sprague-Dawley); type: ADME, organism-based; conditions: in vivo
Rattus norvegicus [4] = species: Rattus norvegicus; assay: Volume of distribution at steady state in Dawley rat; conditions: in vivo
[5] = Clearance in Dawley rat; type: ADME, organism-based; conditions: Sprague-Dawley, plasma, read-out: Clp
Rattus norvegicus [6] = species: Rattus norvegicus; assay: Half-life was determined in Dawley rat; conditions: in vivo

T1 sequence (P05556 whole entry): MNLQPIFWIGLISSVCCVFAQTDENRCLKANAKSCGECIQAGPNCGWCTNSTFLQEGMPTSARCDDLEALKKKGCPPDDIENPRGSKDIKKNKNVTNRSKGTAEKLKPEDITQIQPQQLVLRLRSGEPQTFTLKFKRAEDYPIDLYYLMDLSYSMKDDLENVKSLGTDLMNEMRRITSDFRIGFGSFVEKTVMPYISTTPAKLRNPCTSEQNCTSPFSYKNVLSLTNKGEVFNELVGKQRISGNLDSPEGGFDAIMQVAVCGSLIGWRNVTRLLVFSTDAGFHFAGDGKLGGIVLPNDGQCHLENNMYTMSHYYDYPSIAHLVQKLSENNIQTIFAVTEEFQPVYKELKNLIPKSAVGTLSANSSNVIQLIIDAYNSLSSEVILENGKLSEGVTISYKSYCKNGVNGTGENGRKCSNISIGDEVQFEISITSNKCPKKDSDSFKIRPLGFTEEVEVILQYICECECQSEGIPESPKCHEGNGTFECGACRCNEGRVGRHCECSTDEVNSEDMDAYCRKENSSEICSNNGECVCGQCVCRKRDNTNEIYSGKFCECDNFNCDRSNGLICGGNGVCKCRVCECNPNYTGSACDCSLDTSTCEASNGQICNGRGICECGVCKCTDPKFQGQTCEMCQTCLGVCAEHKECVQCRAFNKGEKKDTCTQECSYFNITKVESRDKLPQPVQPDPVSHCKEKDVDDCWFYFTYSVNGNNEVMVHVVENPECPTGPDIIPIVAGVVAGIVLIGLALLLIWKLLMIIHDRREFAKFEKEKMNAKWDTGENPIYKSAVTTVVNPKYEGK
T1 sequence (P13612 whole entry): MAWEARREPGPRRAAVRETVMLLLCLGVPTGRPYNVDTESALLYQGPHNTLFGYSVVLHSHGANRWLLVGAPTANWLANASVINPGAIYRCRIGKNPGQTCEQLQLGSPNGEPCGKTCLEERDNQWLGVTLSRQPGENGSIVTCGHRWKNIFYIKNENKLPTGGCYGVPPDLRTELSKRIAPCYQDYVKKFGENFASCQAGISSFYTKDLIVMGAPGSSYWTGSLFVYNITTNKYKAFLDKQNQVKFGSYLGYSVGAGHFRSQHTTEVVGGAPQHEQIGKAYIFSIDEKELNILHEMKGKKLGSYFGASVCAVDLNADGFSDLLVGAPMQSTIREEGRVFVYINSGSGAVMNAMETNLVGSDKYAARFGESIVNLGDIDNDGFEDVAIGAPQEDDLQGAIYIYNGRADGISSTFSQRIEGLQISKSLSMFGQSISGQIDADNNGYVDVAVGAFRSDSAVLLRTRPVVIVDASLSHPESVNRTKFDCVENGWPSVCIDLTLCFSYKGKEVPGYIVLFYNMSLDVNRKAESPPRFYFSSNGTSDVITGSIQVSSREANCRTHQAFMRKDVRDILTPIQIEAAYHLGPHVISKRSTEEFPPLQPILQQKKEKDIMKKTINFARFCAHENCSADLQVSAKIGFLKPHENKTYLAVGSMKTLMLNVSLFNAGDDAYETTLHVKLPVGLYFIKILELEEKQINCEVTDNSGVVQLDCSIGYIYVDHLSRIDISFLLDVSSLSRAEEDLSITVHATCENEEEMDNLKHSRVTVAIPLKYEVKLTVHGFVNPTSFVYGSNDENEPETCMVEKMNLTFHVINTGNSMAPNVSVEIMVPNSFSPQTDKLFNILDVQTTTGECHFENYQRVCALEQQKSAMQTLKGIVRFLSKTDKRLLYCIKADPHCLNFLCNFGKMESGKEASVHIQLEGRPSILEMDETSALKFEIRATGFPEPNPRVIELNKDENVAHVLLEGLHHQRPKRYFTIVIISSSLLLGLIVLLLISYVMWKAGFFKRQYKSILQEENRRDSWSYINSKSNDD

Row | SMILES | IC50 (Integrin alpha-4/beta-1 [1]) [nM] | other results
1 | COc1cccc(OC)c1-c1ccc(CC(Nc2cccc(C#N)c2)C(=O)O)cc1 (stereo not given) | 4360 | –
2 | COc1cccc(OC)c1-c1ccc(CC(Nc2ccc(C(F)(F)F)cn2)C(=O)O)cc1 (stereo not given) | 3190 | –
3 | COc1cccc(OC)c1-c1ccc(CC(Nc2ccncc2)C(=O)O)cc1 (stereo not given) | 170 | –
4 | COc1cccc(OC)c1-c1ccc(CC(Nc2cccnc2)C(=O)O)cc1 (stereo not given) | 820 | –
5 | COc1cccc(OC)c1-c1ccc(CC(Nc2ccc(C(F)(F)F)cc2)C(=O)O)cc1 (stereo not given) | – | inhibition (Integrin alpha-4/beta-1 [2]): 45%
6 | COc1cccc(OC)c1-c1ccc(CC(Nc2ccccn2)C(=O)O)cc1 (stereo not given) | 610 | –
7 | COc1cccc(OC)c1-c1ccc(CC(Nc2ccc(C#N)cc2)C(=O)O)cc1 (stereo not given) | 4470 | –
8 | COc1cccc(OC)c1-c1ccc(CC(Nc2ccc(C(=O)N3CCCC3)cc2)C(=O)O)cc1 (stereo not given) | 320 | –
9 | COc1cccc(OC)c1-c1ccc(CC(Nc2ccc(S(=O)(=O)c3ccccc3)cc2)C(=O)O)cc1 (stereo not given) | 240 | –
10 | COc1cccc(OC)c1-c1ccc(CC(Nc2ccccc2)C(=O)O)cc1 (stereo not given) | 8870 | –
11 | COc1cccc(OC)c1-c1ccc(CC(Nc2cc(Cl)cc(Cl)c2)C(=O)O)cc1 (stereo not given) | 6490 | –
12 | COc1cccc(OC)c1-c1ccc(CC(Nc2ccccc2[N+](=O)[O-])C(=O)O)cc1 (stereo not given) | 3550 | –
13 | COc1cccc(OC)c1-c1ccc(CC(Nc2ccc([N+](=O)[O-])cc2)C(=O)O)cc1 (stereo not given) | 5250 | –
14 | COc1cccc(NC(Cc2ccc(-c3c(OC)cccc3OC)cc2)C(=O)O)n1 (stereo not given) | 4180 | –
15 | COc1cccc(OC)c1-c1ccc(CC(Nc2cc(C(F)(F)F)cc(C(F)(F)F)c2)C(=O)O)cc1 (stereo not given) | – | inhibition (Integrin alpha-4/beta-1 [2]): 46%

The next lines start with results.

Row | IC50 (Integrin alpha-4/beta-1 [1]) [nM] | SMILES | other results
16 | 97 | COc1cccc(OC)c1-c1ccc(CC(Nc2ccc(S(C)(=O)=O)cc2)C(=O)O)cc1 (stereo not given) | –
17 | 23 | COc1cccc(OC)c1-c1ccc(CC(Nc2ccc(C(=O)N3CCCC3)cn2)C(=O)O)cc1 (stereo not given) | –
18 | 12 | COc1cccc(OC)c1-c1ccc(CC(Nc2cccc(S(=O)(=O)N3CCCC3)c2)C(=O)O)cc1 (stereo not given) | bioavailability [3]: 24%; Vdss (Rattus norvegicus [4]): 0.55 L/kg; clearance [5]: 73 mL/min/kg; T1/2 (Rattus norvegicus [6]): 54 min
19 | 12 | COc1cccc(OC)c1-c1ccc(C[C@H](NC(C)=O)C(=O)O)cc1 | –
20 | 0.39 | CCCS(=O)(=O)c1cc(NC(Cc2ccc(-c3c(OC)cccc3OC)cc2)C(=O)O)ncn1 (stereo not given) | bioavailability [3]: 6%; Vdss (Rattus norvegicus [4]): 0.28 L/kg; clearance [5]: 17 mL/min/kg; T1/2 (Rattus norvegicus [6]): 48 min
21 | 91 | COc1cccc(OC)c1-c1ccc(CC(Nc2ccc(S(=O)(=O)N3CCCC3)cc2)C(=O)O)cc1 (stereo not given) | –
22 | 1.2 | COc1cccc(OC)c1-c1ccc(CC(NC(=O)c2ccccc2)C(=O)O)cc1 (stereo not given) | –
